The source of these data is ChEMBL document CHEMBL1125509, “Synthesis and biological activity of CCK heptapeptide analogues. Effects of conformational constraints and standard modifications on receptor subtype selectivity, functional activity in vitro, and appetite suppression in vivo” (J Med Chem, 1992).

SMILES strings stand for the structures. Calls of active or inactive are those of the source. No cut-off for these calls is given here. *1 amine or outer side, *2 acyl side, *3 side chain or, on linkers, in order; H or OH if unused. Where a SMILES comes first, the peptide text is derived from it. [ ]: non-standard residue; d: D form. The star is where a group is joined. Hydrocinnamoyl(4-OSO3H) = O=C(CCc1ccc(OS(=O)(=O)O)cc1)*; X2 = O=C([C@@H]1CC(OS(=O)(=O)O)CN1[*:1])[*:2]; X5 = CCC[C@H]1CCN([*:1])[C@@H]1C(=O)[*:2]; X4 = O=C(c1ccc2cc(OS(=O)(=O)O)ccc2c1)*; X1 = CCCC1CCN([*:1])[C@@H]1C(=O)[*:2]; X6 = O=C(/C=C/c1ccc(OS(=O)(=O)O)cc1)*; X3 = O=C(/C(=C/c1ccccc1)N[*:1])[*:2]; NMeF = CN[C@@H](Cc1ccccc1)C(=O)O; NMeD = CN[C@@H](CC(=O)O)C(=O)O; NMeL = CN[C@@H](CC(C)C)C(=O)O; Nle = CCCC[C@H](N)C(=O)O; Ava = NCCCCC(=O)O Bounds are passed on as bounds.

The subject of test [1] is Cholecystokinin receptor type A (Cavia porcellus). The test can be described thus: Evaluated in vitro for maximal stimulatory activity for PI hydrolysis relative to CCK-8 in guinea pig tissue.
Test [2] deals with Rattus norvegicus. The test can be described thus: Compound was evaluated for % suppression (at 30 nmol/kg) of food intake in rat (360-420 min); not significant. The test is classed as functional, organism-based.
Test [3] deals with T1, Cholecystokinin receptor type A (Cavia porcellus, UniProt Q63931).
T1 sequence (Q63931 whole entry): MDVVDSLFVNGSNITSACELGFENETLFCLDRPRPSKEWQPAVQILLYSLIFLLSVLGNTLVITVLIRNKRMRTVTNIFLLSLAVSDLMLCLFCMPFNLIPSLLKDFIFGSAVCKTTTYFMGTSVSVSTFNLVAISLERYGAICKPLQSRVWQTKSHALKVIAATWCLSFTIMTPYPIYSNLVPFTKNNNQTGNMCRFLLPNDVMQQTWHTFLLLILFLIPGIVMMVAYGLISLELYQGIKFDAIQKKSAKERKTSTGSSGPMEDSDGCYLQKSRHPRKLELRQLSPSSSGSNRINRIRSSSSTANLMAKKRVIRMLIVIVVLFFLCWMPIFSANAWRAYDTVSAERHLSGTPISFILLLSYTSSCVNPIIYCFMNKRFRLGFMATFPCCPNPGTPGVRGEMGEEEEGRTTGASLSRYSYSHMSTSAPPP
The test can be described thus: Evaluated in vitro for its binding affinity towards cholecystokinin type A receptor of guinea pig pancreas.

For test [4], the target named is T2, Cholecystokinin receptor type A (Cavia porcellus) (UniProt Q63931).
T2 sequence (whole entry): T1 sequence (Q63931 whole entry)
The test can be described thus: Ratio of binding affinities for CCK-A receptor of guinea pig pancreas (IC50(nM)) to CCK-B receptor of guinea pig cortex (IC50(nM)). Format: tissue-based.

The target in test [5] is Cholecystokinin receptor (Rattus norvegicus) (UniProt P30551+P30553). The test can be described thus: Evaluated for effective dose required for suppression of food intake in rat (0-60 min). Format: functional.
The target in test [6] is Cholecystokinin receptor type A (Cavia porcellus). The test can be described thus: Evaluated in vitro for maximal stimulatory activity for amylase release relative to CCK-8 in guinea pig tissue.
The test system of test [7] is Cholecystokinin receptor type A (Cavia porcellus). The test can be described thus: Ratio for CCK-A receptor of guinea pig pancreas (IC50(nM)) to CCK-B receptor of guinea pig cortex (IC50(nM)).
Test [8] is filed under the species Cavia porcellus. The test can be described thus: In vitro maximal stimulatory activity for amylase release relative to CCK-8 in guinea pig tissue at 10 uM. Format: functional.
For test [9], the species on record is Cavia porcellus. The test can be described thus: In vitro maximal stimulatory activity for amylase release relative to CCK-8 in guinea pig tissue at 20 nM. The test is classed as functional.
The species named for test [10] is Cavia porcellus. The test can be described thus: In vitro maximal stimulatory activity for amylase release relative to CCK-8 in guinea pig tissue at 5 nM. Format: functional.
The species named for test [11] is Cavia porcellus. The test can be described thus: In vitro maximal stimulatory activity for amylase release relative to CCK-8 in guinea pig tissue at 3 uM. Format: functional.
Test [12] is filed under the species Cavia porcellus. The test can be described thus: (§1) Compound (10e-4 M) was evaluated in vitro for maximal stimulatory activity for PI hydrolysis relative to CCK-8 in guinea pig tissue. Format: functional.
Test [13] has as its system Rattus norvegicus. The test can be described thus: Compound was evaluated for % suppression (at 30 nmol/kg) of food intake in rat (360-420 min). Format: functional.
Test [14] in a line: as §1. Format: functional.

As usually defined, the IC50 is the concentration that gives 50% inhibition. A word on the ED50: it is the midpoint of the dose-response relation. The EC50 is the concentration that produces a half-maximal response. A higher EC50 goes with a need for much substance. Regarding `CCCC[C@H](NC(=O)CCc1ccc(OS(=O)(=O)O)cc1)C(=O)NCC(=O)N[C@@H](Cc1c[nH]c2ccccc12)C(=O)N[C@@H](CCCC)C(=O)N[C@@H](CC(=O)O)C(=O)N[C@@H](Cc1ccccc1)C(N)=O`, the Max response in test [1] was found to be 100%. Moreover, the Supression entry in test [2] was “inactive”. Further, the IC50 in [3] came to 0.77 nM. In test [4], the Ratio is 1.53. Also, in test [5], the 50% effect level (ED50) was put at a dose of 0.00398 µmol/kg. Besides, the EC50 in [6] worked out at 0.99 nM.
In the case of `CCCC[C@H](NC(=O)[C@H](Cc1c[nH]c2ccccc12)NC(=O)CNC(=O)[C@@H](CCCC)NC(=O)CCc1ccc(OS(=O)(=O)O)cc1)C(=O)N[C@@H](CC(=O)O)C(=O)N[C@@H](Cc1ccccc1)C(N)=O`, the Max response in test [1] stood at 52%. Also, the IC50 in test [3] was found to be 150 nM. Further, the Ratio in test [7] worked out at 18.5.
The molecule `CCCC[C@H](NC(=O)[C@H](Cc1c[nH]c2ccccc12)NC(=O)CN1CC[C@H](NC(=O)CCc2ccc(OS(=O)(=O)O)cc2)C1=O)C(=O)N[C@@H](CC(=O)O)C(=O)N[C@@H](Cc1ccccc1)C(N)=O` displayed a Max response in [1] of 86%. This molecule also had an IC50 in test [3] of 130 nM. Also, the Ratio in test [7] is 9. Further, in test [6], the concentration for a half-maximal effect (EC50) was 71 nM.
In test [1], `CCCC[C@H](NC(=O)c1ccc2cc(OS(=O)(=O)O)ccc2c1)C(=O)NCC(=O)N[C@@H](Cc1c[nH]c2ccccc12)C(=O)N[C@@H](CCCC)C(=O)N[C@@H](CC(=O)O)C(=O)N[C@@H](Cc1ccccc1)C(N)=O` (X4-[Nle]GW[Nle]DF-NH2) gave a Max response of 16%. Moreover, the IC50 in test [3] was 900 nM. In addition, the Ratio in test [7] was 0.04. In [8], the Stimulation is 44%.
Turning to `CCCC[C@H](NC(=O)/C=C/c1ccc(OS(=O)(=O)O)cc1)C(=O)NCC(=O)N[C@@H](Cc1c[nH]c2ccccc12)C(=O)N[C@@H](CCCC)C(=O)N[C@@H](CC(=O)O)C(=O)N[C@@H](Cc1ccccc1)C(N)=O` (X6-[Nle]GW[Nle]DF-NH2), in [9], the Stimulation was found to be 105%. For the same molecule, the 50% inhibitory concentration (IC50) in test [3] stood at 23 nM.
In test [1], `CC(C)C[C@H](NC(=O)[C@H](Cc1c[nH]c2ccccc12)NC(=O)CCCCNC(=O)CCc1ccc(OS(=O)(=O)O)cc1)C(=O)N[C@@H](CC(=O)O)C(=O)N[C@@H](Cc1ccccc1)C(N)=O` ({Hydrocinnamoyl(4-OSO3H)-Ava}-WLDF-NH2) had a Max response of 64%. Besides, the IC50 in [3] is 150 nM. Besides, the Ratio in test [7] was found to be 143. Moreover, in test [6], the half-maximal effective concentration (EC50) is 140 nM.
In the same order, the values of `CCCC[C@H](NC(=O)[C@H](Cc1c[nH]c2ccccc12)NC(=O)CNC(=O)[C@H](CC(C)C)NC(=O)CCc1ccc(OS(=O)(=O)O)cc1)C(=O)N[C@@H](CC(=O)O)C(=O)N[C@@H](Cc1ccccc1)C(N)=O` ({Hydrocinnamoyl(4-OSO3H)}-LGW[Nle]DF-NH2) are 120%, 0.67 nM, 1.1 and 0.64 nM.
With `CCC[C@H]1CCN(C(=O)[C@H](Cc2c[nH]c3ccccc23)NC(=O)CNC(=O)[C@@H]2CCCN2C(=O)CCc2ccc(OS(=O)(=O)O)cc2)[C@@H]1C(=O)N[C@@H](CC(=O)O)C(=O)N(C)[C@@H](Cc1ccccc1)C(N)=O` ({Hydrocinnamoyl(4-OSO3H)}-PGW[X5]D[NMeF]-NH2) [listing 1 of 2 here], in [3], the IC50 worked out at 7.3 nM.
With `CCC[C@H]1CCN(C(=O)[C@H](Cc2c[nH]c3ccccc23)NC(=O)CNC(=O)[C@@H]2CCCN2C(=O)CCc2ccc(OS(=O)(=O)O)cc2)[C@@H]1C(=O)N[C@@H](CC(=O)O)C(=O)N(C)[C@@H](Cc1ccccc1)C(N)=O` ({Hydrocinnamoyl(4-OSO3H)}-PGW[X5]D[NMeF]-NH2) [listing 2 of 2 here], in test [10], the Stimulation was found to be 83%.
Molecule `CCCC[C@H](NC(=O)CCc1ccc(OS(=O)(=O)O)cc1)C(=O)NCC(=O)N[C@@H](Cc1c[nH]c2ccccc12)C(=O)N1CCC[C@H]1C(=O)N[C@@H](CC(=O)O)C(=O)N(C)[C@@H](Cc1ccccc1)C(N)=O` ({Hydrocinnamoyl(4-OSO3H)}-[Nle]GWPD[NMeF]-NH2) showed a Stimulation in test [11] of 98%. In test [3], this molecule returned an IC50 of 81 nM.
`CCCC[C@H](NC(=O)CCc1ccc(OS(=O)(=O)O)cc1)C(=O)NCC(=O)N[C@@H](Cc1c[nH]c2ccccc12)C(=O)N(C)[C@@H](CC(C)C)C(=O)N[C@@H](CC(=O)O)C(=O)N[C@@H](Cc1ccccc1)C(N)=O` ({Hydrocinnamoyl(4-OSO3H)}-[Nle]GW[NMeL]DF-NH2): the Max response in test [1] was determined as 80%. This molecule also showed a half-inhibitory concentration (IC50) in test [3] of 140 nM. In test [7], the Ratio came to 625. This molecule also had an EC50 in [6] of 15 nM.
Consider `CCCC[C@H](NC(=O)CCc1ccc(OS(=O)(=O)O)cc1)C(=O)NCC(=O)N[C@@H](Cc1c[nH]c2ccccc12)C(=O)N[C@@H](CCCC)C(=O)N[C@@H](CC(=O)O)C(=O)N(C)[C@@H](Cc1ccccc1)C(N)=O` ({Hydrocinnamoyl(4-OSO3H)}-[Nle]GW[Nle]D[NMeF]-NH2), for which, in [12], the Max response is on record as 94%. In [13], this molecule had a Supression of 30%. Further, the Ratio in test [7] was 0.1. The 50% effect level in [5] (ED50) was put at a dose of 0.00245 µmol/kg.
For the molecule `CCCC[C@H](NC(=O)CCc1ccc(OS(=O)(=O)O)cc1)C(=O)NCC(=O)N[C@@H](Cc1c[nH]c2ccccc12)C(=O)N[C@@H](CCCC)C(=O)N[C@@H](CC(=O)O)C(=O)N/C(=C\c1ccccc1)C(N)=O` ({Hydrocinnamoyl(4-OSO3H)}-[Nle]GW[Nle]D[X3]-NH2), the Max response in test [14] turned out to be 69%. For the same molecule, the Ratio in test [7] worked out at 0.62.
As to `CCCC[C@H](NC(=O)CCc1ccc(OS(=O)(=O)O)cc1)C(=O)NCC(=O)N[C@@H](Cc1c[nH]c2ccccc12)C(=O)N[C@@H](CCCC)C(=O)N(C)[C@@H](CC(=O)O)C(=O)N[C@@H](Cc1ccccc1)C(N)=O` ({Hydrocinnamoyl(4-OSO3H)}-[Nle]GW[Nle][NMeD]F-NH2), the Max response in test [12] was found to be 100%. In addition, the Supression in test [13] is 29%.
`CCCC[C@H](NC(=O)CCc1ccc(OS(=O)(=O)O)cc1)C(=O)NCC(=O)N[C@@H](Cc1c[nH]c2ccccc12)C(=O)N[C@@H](CCCC)C(=O)N1CC(OS(=O)(=O)O)C[C@H]1C(=O)N[C@@H](Cc1ccccc1)C(N)=O` (stereo partly specified) ({Hydrocinnamoyl(4-OSO3H)}-[Nle]GW[Nle][X2]F-NH2): the Max response in test [12] is given as 82%. In addition, the Supression entry in test [2] is “inactive”. For the same molecule, in [7], the Ratio turned out to be 0.03. Moreover, the ED50 in [5] is > 1 µmol/kg.
For `CCCC[C@H](NC(=O)CCc1ccc(OS(=O)(=O)O)cc1)C(=O)NCC(=O)N[C@@H](Cc1c[nH]c2ccccc12)C(=O)N1CCC(CCC)[C@H]1C(=O)N[C@@H](CC(=O)O)C(=O)N(C)[C@@H](Cc1ccccc1)C(N)=O` (stereo partly specified) ({Hydrocinnamoyl(4-OSO3H)}-[Nle]GW[X1]D[NMeF]-NH2), in that order: 83%, “inactive”, 14.3 and 0.00877 µmol/kg.
